# From patent US11470844B2, “Vespidae wasp repellent” (KINP CO., LTD, priority 2015, dated 2022)
# What was measured:
# [1] = test system: Vespa simillima xanthoptera worker; experiment: Black ball nest disturbance, Experiment 2; type: in vivo; conditions: for number of worker on black ball hemispherical surface: new black ball; for repellent effect and action to suppress the aggression: in vivo
# Protocol: A similar experiment to the above-described Example 2(2) was conducted against the same Vespa simillima xanthoptera nest of the above-described Experiment 1 on Oct. 31, 2014. The number of worker on the black spherical hemispherical surface counted every 30 seconds on the basis of the video image is shown in Table 5, and the picture of the video footage after 115 seconds is shown as FIG. 2. FIG. 2A is an image of the case where distilled water was used, FIG. 2B is an image of the case where 2-phenylethanol was used, and FIG. 2C is an image of the case where benzyl alcohol was used.
# Apis mellifera worker = conditions: in vivo
# Protocol: The experiment involving a Apis mellifera worker which was sucking nectar from a flower of Abelia planted at a bank of Noda pond located at Fuseishi-cho, Takamatsu City, Kagawa Prefecture was conducted on Jul. 22 to 24, 2015.
# With respect to the experimental condition, first, distilled water was sprayed once on the worker which was sucking nectar or moving from a flower to a flower by using a sprayer, and then the inventors observed the behavior for 30 seconds. Next, benzyl alcohol, 2-phenylethanol or benzyl acetate was sprayed once on the same worker by using the sprayer having the same mass and the same volume, and then the inventors observed the behavior up to 30 seconds. The test liquid was judged to be “effective” in the case where the Apis mellifera worker on which the test liquid was sprayed did different action than normal activity to visit a flower during the observation time.
# Vespa mandarinia worker [2] = experiment: Black ball nest disturbance, Experiment 2 (new black ball, 30 s vibration); type: in vivo; conditions: for repellent effect: in vivo
# Excerpt: In the above-described Experiment 1, it was observed that vibrating the black ball in contact with the nest entrance more strongly induces the attack behavior of the worker rather than vibrating the black ball in the air away from the nest. Accordingly, the attack situation of the worker was investigated by vibrating the black ball in contact with the entrance of the same Vespidae wasp nest used in the above-described Experiment 1 for 30 seconds on Oct. 31, 2014. Specifically, the attack situation of the worker was observed similarly to the above-described Experiment 1 except for using a new black ball without using the black ball on which alarm pheromone was adsorbed even in the case of the test liquid and using 2-phenylethanol or benzyl alcohol as the test liquid by vibrating the black ball in contact with the entrance of the same nest for 30 seconds.
# As a result, in the case of the black ball on which distilled water was sprayed, it was difficult to count the total number of the workers which flew to and alighted on the black ball for attack, since the black ball was continued to be attacked by the workers for 150 seconds from the end of the vibration almost without interruption and the number of attacking worker was clearly larger in comparison with the case of the above-described Experiment 1. The inventors therefore counted the number of the worker which could be observed on the hemispherical surface of the black ball from the video image at intervals of 30 seconds from the end of the disturbance. In addition, a picture of the video footage 145 seconds after the end of the nest entrance disturbance is shown as FIG. 1. FIG. 1A is an image of the case where distilled water was used, FIG. 1B is an image of the case where 2-phenylethanol was used, and FIG. 1C is an image of the case where benzyl alcohol was used.
# Vespa mandarinia worker [3] = experiment: Spray on Vespa mandarinia worker collecting sawthorn oak sap; type: in vivo, Vespa mandarinia japonica Radoszkowski; conditions: 10 workers; for behavior of workers after spraying: immediately started flapping, same time or a few seconds later; for Number of worker Effective / Number of worker No response: sprayed one time, observed up to 1 minute
# Protocol: The experiment was conducted on a Vespa mandarinia japonica Radoszkowski worker which flew to a sawthorn oak tree bleeding sap and which collected the sap in Kagawa Prefecture Kinbuchi Forest Park in Takamatsu City Kagawa Prefecture from June to October, 2014 and from June to July, 2015.
# Specifically, 100 mL of distilled water was enclosed in a plastic sprayer having a volume of 200 mL to be used as a control sprayer, and 100 mL of benzyl alcohol was enclosed in the same material and the same volume sprayer to be used as a test liquid sprayer. First, distilled water was sprayed one time to one Vespa mandarinia worker which was collecting sap at a sap bleeding part of a trunk of a sawthorn oak tree by using a control sprayer. […] Then, benzyl alcohol was sprayed one time by using a test liquid sprayer. Next, the workers were observed up to 1 minute. With respect to 2-phenylethanol, 3-phenylpropanol, 1-phenyl-2-prpanol and benzyl acetate, the spray test to a Vespa mandarinia worker collecting a sawthorn oak sap was conducted in the same condition.
# [4] = test system: Polistes jokahamae jokahamae Radoszkowski worker group; experiment: Spray on worker group on nest surface; type: in vivo
# Protocol: The experiment involving a worker group of Polistes jokahamae jokahamae Radoszkowski on the exterior wall of a nest found in the campus of Faculty of Agriculture, Kochi University, located on 200 Otsu, Monobe, Nankoku City, Kochi Prefecture, was conducted on Jul. 13, 2015, and the experiment involving a worker of P. jokahamae jokahamae Radoszkowski which collected sap bled from sucking mark by adult Cryptotympana facialis of Zelkova tree stem planted in a private house in Fuseishi-cho, Takamatsu City, Kagawa Prefecture was conducted on July 19 to 22, 2015. In addition, the experiment involving a worker group of P. chinensis antennalis Pe'rez on the exterior wall of a nest found on a branch of a cheesewood planted at a bank of Noda pond located at Fuseishi-cho, Takamatsu City, Kagawa Prefecture was conducted on Jul. 30, 2015.
# The experiment was conducted in accordance with the above-described Example 1(1) involving a Vespa mandarinia worker, distilled water as a control example spray and benzyl alcohol as a test liquid example spray were sequentially sprayed on a test object group or a test object worker by using a sprayer, and the behavior from immediately after spraying up to 1 minute later was respectively recorded.
SMILES,number of worker on black ball hemispherical surface ([1]; 30 s after disturbance),number of worker on black ball hemispherical surface ([1]; 60 s after disturbance),number of worker on black ball hemispherical surface ([1]; 90 s after disturbance),number of worker on black ball hemispherical surface ([1]; 120 s after disturbance),number of worker on black ball hemispherical surface ([1]; 150 s after disturbance),repellent effect and action to suppress the aggression [1],Number of worker Effective (Apis mellifera worker),Number of worker No response (Apis mellifera worker),number of worker on hemispherical surface of black ball (Vespa mandarinia worker [2]; 30 s after disturbance),number of worker on hemispherical surface of black ball (Vespa mandarinia worker [2]; 60 s after disturbance),number of worker on hemispherical surface of black ball (Vespa mandarinia worker [2]; 90 s after disturbance),number of worker on hemispherical surface of black ball (Vespa mandarinia worker [2]; 120 s after disturbance),number of worker on hemispherical surface of black ball (Vespa mandarinia worker [2]; 150 s after disturbance),repellent effect (Vespa mandarinia worker [2]),behavior of workers after spraying (Vespa mandarinia worker [3]),Number of worker Effective (Vespa mandarinia worker [3]),Number of worker No response (Vespa mandarinia worker [3]),"Number of P. jokahamae jokahamae Radoszkowski on nest surface ([4]; 10:02, 1 minute after spraying benzyl alcohol once, 11 workers before)",time within which all workers flew away from the nest after spraying ([4]; group of 11 workers) [s],effect on behavior of / harm to honeybee (Apis mellifera worker)
"OCCc1ccccc1 [2-Phenylethanol, 2-phenylethanol]",1,0,0,0,0,strong equivalent to or higher than the repellent effect on Vespa mandarinia,0/10,10/10,0,0,0,0,0,very strong,flew away from the sap bleeding part,10/10,0/10,,,
"OCc1ccccc1 [Benzyl alcohol, benzyl alcohol]",0,0,0,0,0,strong equivalent to or higher than the repellent effect on Vespa mandarinia,0/10,10/10,0,0,0,0,0,very strong,flew away from the sap bleeding part,10/10,0/10,0,≤ 10,does not effect on the behavior of an Apis mellifera worker
